Reference: US20160008490A1, “METAL CHELATE COMPOUNDS FOR BINDING TO THE PLATELET SPECIFIC GLYCOPROTEIN IIB/IIIA” (BAYER PHARMA AKTIENGESELLSCHAFT, priority 2013, published 2016)

Test system: in vitro platelet-rich thrombi
Experiment: Magnetic resonance imaging of in vitro platelet-rich thrombi
Format: cell-based, human
Conditions: 10 μmol substance/L, 20 min incubation, washed three times with plasma, 1.5 T, versus control thrombus without contrast agent
Protocol: Magnetic resonance imaging of in vitro platelet-rich thrombi and incubation solution (example 8) using a 3D turbo spin echo sequence (1.5 T, Siemens Avanto, small extremity coil, TR 1050 ms, TE 9.1 ms, 0.5×0.5×0.6 mm^3). In FIG. 2a an in vitro control thrombus without the addition of a contrast agent is shown. The signal intensity of the control thrombus is slightly higher than the surrounding medium but clearly lower than the signal of the in vitro thrombus which was incubated with example 8 as depicted in FIG. 2b. In FIG. 2c the incubation solution with a final concentration of 10 μmol substance/L of example 8 in human plasma is represented. The signal intensity is higher than the surrounding plasma solutions in the in vitro platelet-rich thrombi 2a and 2b.
The in vitro thrombus in FIG. 2b is incubated with the solution which is depicted in FIG. 2c. After 20 min incubation period the thrombi was washed three times with plasma solution.
The MRI imaging experiments were done with platelet-rich plasma. The preparation of platelet-rich plasma using fresh blood is described in L K Jennings et. al. Blood 1986 1, 173-179 but modified with regard to centrifugation procedure. Briefly, fresh blood was taken from a volunteer using 10 mL citrate-tubes (Sarstedt S-Monovette 02.1067.001, 10 mL, Citrate 3.13%). The 10 mL citrate-tubes were carefully inverted 10 times to mix blood and anticoagulant. […]

**Q.** With `CC(C(=O)NCC(=O)NC[C@H](NC(=O)CNC(=O)C(C)N1CCN(CC(=O)O)CCN(CC(=O)O)CCN(CC(=O)O)CC1)C(=O)NC[C@H](NC(=O)[C@H](CNC(=O)CNC(=O)C(C)N1CCN(CC(=O)O)CCN(CC(=O)O)CCN(CC(=O)O)CC1)NC(=O)CNC(=O)C(C)N1CCN(CC(=O)O)CCN(CC(=O)O)CCN(CC(=O)O)CC1)C(=O)NCCCCc1cccc(C#Cc2cncc([C@H](CC(=O)O)NC(=O)[C@@H]3CCCN(C(=O)CCC4CCNCC4)C3)c2)c1)N1CCN(CC(=O)O)CCN(CC(=O)O)CCN(CC(=O)O)CC1` (stereo partly shown) [Example 8] as the compound, how does the “signal intensity of incubated in vitro thrombus (T1-weighted 3D TSE MRI)” value read?
**A.** clearly higher signal than the control thrombi
